Measured values taken from patent EP4667464A1 (Cyrus Therapeutics Inc., priority 2023, dated 2024).
Where two headings read alike, the source gives them in different places.

How the values were obtained:
SOS1 = target: T1, SOS1 (Homo sapiens, UniProt Q07889); assay: SOS-catalyzed nucleotide exchange assay (HTRF, SOS1-mediated GTP loading of KRAS G12D); type: biochemical
T1 construct: HIS-SOS1cat (160 nM; Cytoskeleton, US); His (N); purchased Cytoskeleton
T1 sequence (Q07889 564-1049 limits assumed): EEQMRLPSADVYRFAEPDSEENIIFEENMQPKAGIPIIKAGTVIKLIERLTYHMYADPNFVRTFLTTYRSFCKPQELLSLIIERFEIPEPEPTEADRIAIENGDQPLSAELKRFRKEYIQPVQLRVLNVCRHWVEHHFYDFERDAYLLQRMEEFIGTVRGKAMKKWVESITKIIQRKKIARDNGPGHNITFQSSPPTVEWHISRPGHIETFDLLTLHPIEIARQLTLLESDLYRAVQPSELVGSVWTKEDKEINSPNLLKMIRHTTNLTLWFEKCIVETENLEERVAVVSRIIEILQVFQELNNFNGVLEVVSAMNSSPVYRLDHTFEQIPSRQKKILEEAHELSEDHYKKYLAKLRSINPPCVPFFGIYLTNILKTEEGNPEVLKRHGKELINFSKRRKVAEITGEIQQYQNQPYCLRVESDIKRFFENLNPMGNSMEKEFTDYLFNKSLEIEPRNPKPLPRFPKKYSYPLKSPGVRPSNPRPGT

KRAS G12C::SOS1 = target: T2, KRAS G12C::SOS1 (Homo sapiens, UniProt Q07889); assay: KRAS G12C::SOS1 protein-protein interaction (PPI) inhibition assay (HTRF); type: binding
T2 construct: purchased CISBIO 64KRASG12PEH
T2 sequence (Q07889 1-1333): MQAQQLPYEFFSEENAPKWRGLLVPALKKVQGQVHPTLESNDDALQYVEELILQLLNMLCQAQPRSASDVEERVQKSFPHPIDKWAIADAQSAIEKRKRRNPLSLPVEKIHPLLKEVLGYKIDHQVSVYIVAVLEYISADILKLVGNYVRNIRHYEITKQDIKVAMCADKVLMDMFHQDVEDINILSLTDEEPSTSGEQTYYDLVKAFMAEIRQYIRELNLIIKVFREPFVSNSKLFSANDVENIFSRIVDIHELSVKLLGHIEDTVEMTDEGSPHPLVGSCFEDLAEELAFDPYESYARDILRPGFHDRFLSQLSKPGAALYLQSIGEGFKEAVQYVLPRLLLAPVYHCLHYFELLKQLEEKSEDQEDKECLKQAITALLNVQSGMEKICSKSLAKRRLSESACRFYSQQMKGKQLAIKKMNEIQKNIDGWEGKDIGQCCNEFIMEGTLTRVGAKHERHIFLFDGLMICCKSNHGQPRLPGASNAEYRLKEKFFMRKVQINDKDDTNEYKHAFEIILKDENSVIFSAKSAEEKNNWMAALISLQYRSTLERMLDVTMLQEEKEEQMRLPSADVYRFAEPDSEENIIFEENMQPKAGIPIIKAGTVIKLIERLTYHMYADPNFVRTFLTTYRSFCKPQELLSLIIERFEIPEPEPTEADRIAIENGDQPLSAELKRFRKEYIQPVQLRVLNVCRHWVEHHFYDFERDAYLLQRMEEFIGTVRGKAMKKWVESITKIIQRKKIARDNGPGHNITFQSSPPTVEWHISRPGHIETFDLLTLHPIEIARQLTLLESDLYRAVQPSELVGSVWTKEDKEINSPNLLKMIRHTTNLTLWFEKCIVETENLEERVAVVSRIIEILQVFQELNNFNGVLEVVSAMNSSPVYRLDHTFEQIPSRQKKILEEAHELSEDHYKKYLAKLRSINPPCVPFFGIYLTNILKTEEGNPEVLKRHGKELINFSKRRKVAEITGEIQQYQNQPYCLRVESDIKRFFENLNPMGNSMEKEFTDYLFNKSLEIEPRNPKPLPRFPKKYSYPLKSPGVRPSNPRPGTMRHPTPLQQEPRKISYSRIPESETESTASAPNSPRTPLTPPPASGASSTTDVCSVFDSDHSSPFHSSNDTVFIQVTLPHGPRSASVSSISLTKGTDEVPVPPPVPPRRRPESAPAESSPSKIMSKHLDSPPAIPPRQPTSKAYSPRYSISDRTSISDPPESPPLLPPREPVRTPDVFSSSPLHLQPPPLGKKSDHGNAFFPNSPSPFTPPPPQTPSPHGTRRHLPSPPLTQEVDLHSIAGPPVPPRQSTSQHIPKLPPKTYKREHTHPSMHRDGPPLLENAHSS
How it was run: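 Compounds, at eight 3-fold dilutions from 3 µM, were mixed with GTP-loaded Tag1-KRAS G12C, Tag2-SOS1 and a terbium-cryptate donor plus XL665 acceptor antibody pair. After 2 h at room temperature, time-resolved FRET reported the KRAS–SOS1 interaction.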

[1] = system: lung cancer cell line NCI-H358 having the KRAS G12C variant; assay: Cancer cell growth inhibition, 3D spheroids (CellTiter-Glo 3D); type: cell-based; details: Homo sapiens, NCI-H358, 120 h, read-out: H358 cell viability
Description: Thereafter, the plate with the cells cultured was adapted to room temperature for 10 minutes, and then 50 µL of CellTiter-Glo® 3D Cell Viability Assay (PROMEGA, G9683) solution was dispensed, and reacted on a horizontal stirrer at a speed of 300 RPM for 30 minutes to induce the cell lysis. […] Thereafter, based on the measured values, the degree of cell growth in the well treated with each compound was calculated when the final cell density value of the well not treated with the test substance was set to 100%.

[2] = GST-KRAS G12D, HIS-SOS1cat, compound 128 pM to 10 µM, read-out: SOS-catalyzed nucleotide exchange assay
[3] = 8 concentrations from 3 µM, three replicates, read-out: KRAS G12C::SOS1 PPI
[4] = 3D spheroids, 0.002-10 µM, 5 days

Structure (SMILES) | IC50 (SOS1; [2]) [µM] | IC50 (KRAS G12C::SOS1; [3]) [µM] | IC50 [1, 4] [µM] | IC50 (SOS1; read-out: SOS-catalyzed nucleotide exchange assay, GST-KRAS G12D, HIS-SOS1cat, compound 128 pM to 10 µM) [µM] | IC50 (KRAS G12C::SOS1; read-out: KRAS G12C::SOS1 PPI, 8 concentrations from 3 µM, three replicates) [µM] | IC50 [1] [µM] | IC50 (SOS1) [µM] | IC50 (KRAS G12C::SOS1) [µM]
Cc1ncc(-n2nc(C(=O)N[C@H](C)c3cccc(C(F)(F)CO)c3F)ccc2=O)cc1-c1cnnn1C [Example 1-29] | 0.05 to 0.15 | < 0.05 | < 1 |  |  |  |  | 
C[C@@H](NC(=O)c1ccc(=O)n(-c2cncc(-c3cnnn3C3CC3)c2)n1)c1cccc(C(F)(F)CO)c1F [Example 1-53, N-[(1R)-1-[3-(1,1-difluoro-2-hydroxy-ethyl)-2-fluoro-phenyl]ethyl]-1-[5-(1-cyclopropyl-1H-1,2,3-triazol-5-yl)-3-pyridyl]-6-oxo-pyridazine-3-carboxamide] | < 0.05 | < 0.05 | < 1 |  |  |  |  | 
C[C@@H](NC(=O)c1cc(C2=CCCCC2)c(=O)n(-c2cncc(-c3cnnn3C)c2)n1)c1cccc(C(F)(F)F)c1F [Example 1-64, N-{(R)-1-[2-fluoro-3-(trifluoromethyl)phenyl]ethyl}-5-(1-cyclohexen-1-yl)-1-[5-(1-methyl-1H-1,2,3-triazol-5-yl)-3-pyridyl]-6-oxo-1,6-dihydropyridazine-3-carboxamide] | > 0.15 | > 0.15 | 1 to 3 |  |  |  |  | 
C[C@@H](NC(=O)c1ccc(=O)n(-c2cnc(N3CCOCC3)c(-c3cnnn3C)c2)n1)c1cccc(C(F)(F)F)c1F [Example 1-46, N-{(R)-1-[2-fluoro-3-(trifluoromethyl)phenyl]ethyl}-1-[5-(1-methyl-1H-1,2,3-triazol-5-yl)-6-morpholino-3-pyridyl]-6-oxo-1,6-dihydropyridazine-3-carboxamide] |  |  |  | 0.05 to 0.15 | 0.05 to 0.15 | < 1 |  | 
CCc1cc(C(=O)N[C@H](C)c2cccc(C(F)(F)CO)c2F)nn(-c2cncc(-c3cnnn3C3CC3)c2)c1=O [Example 1-42, N-{(R)-1-[3-(1,1-difluoro-2-hydroxyethyl)-2-fluorophenyl]ethyl}-1-[5-(1-cyclopropyl-1H-1,2,3-triazol-5-yl)-3-pyridyl]-5-ethyl-6-oxo-1,6-dihydropyridazine-3-carboxamide] | < 0.05 | < 0.05 | < 1 |  |  |  |  | 
C[C@@H](NC(=O)c1ccc(=O)n(-c2cncc(-c3cnnn3C)c2)n1)c1cc(N)cc(C(F)F)c1 [Example 2, N-[(1R)-1-[3-amino-5-(difluoromethyl)phenyl]ethyl]-1-[5-(3-methyltriazol-4-yl)-3-pyridyl]-6-oxo-pyridazine-3-carboxamide] |  |  | < 1 |  |  |  | 0.05 to 0.15 | 0.05 to 0.15
Cc1cc(C(=O)N[C@H](C)c2cccc(C(F)(F)CO)c2F)nn(-c2cncc(-c3cnnn3C)c2)c1=O [Example 1-23, N-[(1R)-1-[3-(1,1-difluoro-2-hydroxy-ethyl)-2-fluoro-phenyl]ethyl]-5-methyl-1-[5-(3-methyltriazol-4-yl)-3-pyridyl]-6-oxo-pyridazine-3-carboxamide] | < 0.05 | < 0.05 | < 1 |  |  |  |  | 
C[C@@H](NC(=O)c1cc(C2=CCCCC2)c(=O)n(-c2cncc(-c3cnnn3C)c2)c1)c1cccc(C(F)(F)F)c1F [Example 15, N-{(R)-1-[2-fluoro-3-(trifluoromethyl)phenyl]ethyl}-5-(1-cyclohexen-1-yl)-5'-(1-methyl-1H-1,2,3-triazol-5-yl)-6-oxo-1H-[1,3'-bipyridyl]-3-carboxamide] | < 0.05 | < 0.05 | < 1 |  |  |  |  | 
C[C@@H](NC(=O)c1cc(CO)c(=O)n(-c2cncc(-c3cnnn3C3CC3)c2)n1)c1cccc(C(F)(F)F)c1F [Example 6-3] |  |  |  |  |  | < 1 | < 0.05 | < 0.05
C[C@@H](NC(=O)c1ccc(=O)n(-c2cncc(-c3cnnn3C)c2)c1)c1cccc(C(F)(F)F)c1F [Example 1-24, N-[(1R)-1-[2-fluoro-3-(trifluoromethyl)phenyl]ethyl]-1-[5-(3-methyltriazol-4-yl)-3-pyridyl]-6-oxo-pyridine-3-carboxamide] | < 0.05 | < 0.05 | < 1 |  |  |  |  | 
C[C@@H](NC(=O)c1ccc(=O)n(-c2cncc(-c3cnnn3C)c2)n1)c1cccc(C(F)F)c1F [Example 1-1, N-[(1R)-1-[3-(difluoromethyl)-2-fluoro-phenyl]ethyl]-1-[5-(3-methyltriazol-4-yl)-3-pyridyl]-6-oxo-pyridazine-3-carboxamide] | 0.05 to 0.15 | < 0.05 | < 1 |  |  |  |  | 
C[C@@H](NC(=O)c1ccc(=O)n(-c2cncc(-c3cnnn3C)c2)n1)c1cccc(C2(C)CC2)c1F [Example 1-33, N-[(1R)-1-[2-fluoro-3-(1-methylcyclopropyl)phenyl]ethyl]-1-[5-(3-methyltriazol-4-yl)-3-pyridyl]-6-oxo-pyridazine-3-carboxamide] |  | > 0.15 | > 3 |  |  |  |  | 

Second part, led by results:

IC50 (SOS1; [2]) [µM] | IC50 (KRAS G12C::SOS1; [3]) [µM] | IC50 [1, 4] [µM] | Structure (SMILES) | IC50 (SOS1; read-out: SOS-catalyzed nucleotide exchange assay, GST-KRAS G12D, HIS-SOS1cat, compound 128 pM to 10 µM) [µM] | IC50 (KRAS G12C::SOS1; read-out: KRAS G12C::SOS1 PPI, 8 concentrations from 3 µM, three replicates) [µM] | IC50 [1] [µM] | IC50 (SOS1) [µM] | IC50 (KRAS G12C::SOS1) [µM]
0.05 to 0.15 | 0.05 to 0.15 | < 1 | C[C@@H](NC(=O)c1cc(C#N)c(=O)n(-c2cncc(-c3cnnn3C)c2)n1)c1cccc(C(F)(F)F)c1F [Example 3-2, 5-cyano-N-{(1R)-1-[2-fluoro-3-(trifluoromethyl)phenyl]ethyl}-1-[5-(1-methyl-1H-1,2,3-triazol-5-yl)-3-pyridyl]-6-oxo-1,6-dihydropyridazine-3-carboxamide] |  |  |  |  | 
< 0.05 | < 0.05 | < 1 | Cc1c([C@@H](C)NC(=O)c2cc(C)c(=O)n(-c3cncc(-c4cnnn4C)c3)n2)cc(N)cc1C(F)(F)F [Example 2-6, N-[(1R)-1-[5-amino-2-methyl-3-(trifluoromethyl)phenyl]ethyl]-5-methyl-1-[5-(3-methyltriazol-4-yl)-3-pyridyl]-6-oxo-pyridazine-3-carboxamide] |  |  |  |  | 
< 0.05 | < 0.05 | < 1 | C[C@@H](NC(=O)c1ccc(=O)n(-c2cncc(-c3cnnn3C)c2)n1)c1cc(N)cc(C(F)(F)F)c1F [Example 2-1, N-[(1R)-1-[5-amino-2-fluoro-3-(trifluoromethyl)phenyl]ethyl]-1-[5-(3-methyltriazol-4-yl)-3-pyridyl]-6-oxo-pyridazine-3-carboxamide] |  |  |  |  | 
< 0.05 | < 0.05 | < 1 | C[C@@H](NC(=O)c1cc(C2CC2)c(=O)n(-c2cncc(-c3cnnn3C)c2)n1)c1cccc(C(F)(F)F)c1F [Example 7-4, N-{(R)-1-[2-fluoro-3-(trifluoromethyl)phenyl]ethyl}-5-cyclopropyl-1-[5-(1-methyl-1H-1,2,3-triazol-5-yl)-3-pyridyl]-6-oxo-1,6-dihydropyridazine-3-carboxamide] |  |  |  |  | 
